# Test results as given in patent US8314112B2 (Novartis AG, priority 2008, dated 2012).
# Biological target: T1, human ALK5 (kinase domain, ALK5 T204D) (Homo sapiens, UniProt P36897, T204D)
# T1 construct: The kinase domain of human ALK5 (amino acids 200-503); made in house; host or cells: insect cells (baculovirus)
# T1 sequence (P36897 200-503 T204D): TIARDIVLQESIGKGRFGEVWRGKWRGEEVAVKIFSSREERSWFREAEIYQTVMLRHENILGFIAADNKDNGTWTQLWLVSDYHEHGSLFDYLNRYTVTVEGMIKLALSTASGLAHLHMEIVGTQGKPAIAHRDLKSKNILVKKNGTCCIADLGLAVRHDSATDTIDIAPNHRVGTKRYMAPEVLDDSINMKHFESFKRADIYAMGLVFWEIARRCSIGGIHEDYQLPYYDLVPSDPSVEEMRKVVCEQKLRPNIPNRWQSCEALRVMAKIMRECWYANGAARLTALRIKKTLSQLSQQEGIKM
# Experiment: ALK5 kinase assay ([33P] phosphate incorporation into casein)
# Assay type: biochemical
# Conditions: casein substrate, 1 μM unlabelled ATP
# Experimental: The kinase activity of ALK5 is assessed by measuring radiolabelled phosphate [33P] incorporation in to the generic substrate, casein. The kinase domain of human ALK5 (amino acids 200-503) is fused to an N-terminal histidine tag. The kinase activity of ALK5 is rendered constitutive via point mutation at amino acid 204 (threonine to aspartate modification, ALK5 T204D) and the kinase construct is engineered to be expressed from a baculovirus expression construct in insect cells. The purified, recombinantly-expressed histidine-tagged ALK5 T204D protein is dissolved at 5.4 mg/ml in 50 mM Tris-HCl pH 8.0, 150 mM NaCl, 5 mM DTT. ALK5 T204D is dissolved to 2.5 μg/ml in assay buffer (Assay buffer: 20 mM Tris-HCl pH 7.4, 10 mM MgCl2, 2 mM MnCl2) on the day of use.
# Test compounds and reference compounds are dissolved in assay buffer without DTT containing 5% (v/v) DMSO. Stock solutions of test and reference compounds are diluted in assay buffer with DTT (1.25 mM) containing 4.5% (v/v) DMSO. 10 μl of test or reference compound are added to the appropriate wells of 96 well U-bottomed plate. Total enzyme activity is determined by measuring ALK5 T204D activity in the absence of ALK5 kinase inhibitor reference compounds. Non-specific binding (NSB) is determined by measuring the activity of ALK5 T204D in the presence of ALK5 kinase inhibitor reference compounds. 10 μl of dephosphorylated casein stock solution (dephosphorylated casein is dissolved in ddH2O at 20 mg/ml) is added per well (200 μg/well final assay concentration). 20 μl of ALK5 T204D (2.5 μg/ml solution) is added per well (50 ng/well final assay concentration). The plates are left to incubate at room temperature for 10 minutes.
# 10 μl of ATP mix is added to the well to initiate the reaction (0.66 nM [^33P]ATP/1 μM unlabelled ATP/well final assay concentration). The ATP mix is prepared as follows, unlabelled ATP (3 mM) is dissolved in ddH2O and pH adjusted to 7.4. The stock concentration of [^33P]ATP is 10 μCi/μl. The appropriate volume of [^33P]ATP is added to unlabelled ATP solution such that the final assay concentration per well is 0.1 μCi. Following addition of the ATP mix, the plates are incubated at room temperature for 50 minutes. The kinase reaction is terminated by the addition of 50 μL Stop Buffer (20 mM Tris-HCl pH 7.4, 10 mM EDTA).
# 75 μl/well from the reaction plate is transferred to a Multiscreen-IP plate (MultiScreen-IP plates are prepared by added 50 μL of 70% (v/v) ethanol per well and incubated for 5 minutes at room temperature. The ethanol is removed by aspiration via a MultiScreen HTS Vaccum Manifold unit (Millipore, Cat no: MSVMHT500). The plates are washed twice by adding 200 μl/well ddH2O). The MultiScreen-IP plate is incubated at room temperature for 30 minutes to allowing binding of casein to the plate. The MultiScreen-IP plates are washed three times by adding 200 μl/well 100 mM phosphoric acid solution and the gasket is carefully removed from the back of the MultiScreen-IP plate and the plate dried in the oven for 30 minutes. The MultiScreen-IP plate is backsealed, 50 μL of Microscint™20 is added, then the plates are topsealed and radiolabelled casein detected and quantified on a TopCount™ plate-reader using the ^33P scintillation protocol.
row,Compound,IC50 [nM]
1,"COC(=O)CNCc1cccc(-c2cncc(-c3cc(-c4cccc(C)n4)nc4[nH]ccc34)c2)c1 [Example 131, (3-{5-[6-(6-Methyl-pyridin-2-yl)-1H-pyrrolo[2,3-b]pyridin-4-yl]-pyridin-3-yl}-benzylamino)-acetic acid methyl ester]",10
2,"Cc1cccc(-c2nc(-c3cncc(-c4ccccc4C)c3)c3cc[nH]c3n2)n1 [Example 32, 2-(6-Methyl-pyridin-2-yl)-4-(5-o-tolyl-pyridin-3-yl)-7H-pyrrolo[2,3-d]pyrimidine]",762
3,"Cc1cccc(-c2cc(-c3cccnc3)c3cc[nH]c3n2)n1 [Example 46, 6-(6-methyl-pyridin-2-yl)-4-pyridin-3-yl-1H-pyrrolo[2,3-b]pyridine]",264
4,"Cc1cccc(-c2nc(-c3cncc(-c4ccc(C(=O)N5CCNCC5)cc4)c3)c3cc[nH]c3n2)n1 [Example 40, (4-{5-[2-(6-Methyl-pyridin-2-yl)-7H-pyrrolo[2,3-d]pyrimidin-4-yl]-pyridin-3-yl}-phenyl)-piperazin-1-yl-methanone]",3
5,"Cc1cccc(-c2nc(-c3cncc(-c4cccc(CN(C)C)c4)c3)c3cc[nH]c3n2)n1 [Example 37, Dimethyl-(3-{5-[2-(6-methyl-pyridin-2-yl)-7H-pyrrolo[2,3-d]pyrimidin-4-yl]-pyridin-3-yl}-benzyl)-amine]",33
6,"Brc1cncc(-c2nc(-c3ccccn3)nc3[nH]ccc23)c1 [Example 44, 4-(5-Bromo-pyridin-3-yl)-2-pyridin-2-yl-7H-pyrrolo[2,3-d]pyrimidine]",424
7,"Cc1cccc(-c2cc(-c3cncc(C4=CCCC4)c3)c3cc[nH]c3n2)n1 [Example 89, 4-(5-Cyclopent-1-enyl-pyridin-3-yl)-6-(6-methyl-pyridin-2-yl)-1H-pyrrolo[2,3-b]pyridine]",79
8,Cc1cccc(-c2nc(-c3cncc(-c4ccc(CO)cc4)c3)c3cc[nH]c3n2)n1 [Example 70],13
9,"Cc1cccc(-c2cc(-c3cncc(-c4cnn(C)c4)c3)c3cc[nH]c3n2)n1 [Example 123, 4-[5-(1-Methyl-1H-pyrazol-4-yl)-pyridin-3-yl]-6-(6-methyl-pyridin-2-yl)-1H-pyrrolo[2,3-b]pyridine]",4.4
10,"Cc1cccc(-c2nc(-c3cncc(C#N)c3)c3cc[nH]c3n2)n1 [Example 98, 5-[2-(6-Methyl-pyridin-2-yl)-7H-pyrrolo[2,3-d]pyrimidin-4-yl]-nicotinonitrile]",799
11,"Cc1cccc(-c2nc(-c3cncc(-c4cccc(C5CNCCN5)c4)c3)c3cc[nH]c3n2)n1 (stereo not drawn) [Example 99, 2-(6-Methyl-pyridin-2-yl)-4-[5-(3-piperazin-2-yl-phenyl)-pyridin-3-yl]-7H-pyrrolo[2,3-d]pyrimidine]",14
12,"Cc1cccc(-c2nc(-c3cncc(C4=CCNCC4)c3)c3cc[nH]c3n2)n1 [Example 101, 5-[2-(6-Methyl-pyridin-2-yl)-7H-pyrrolo[2,3-d]pyrimidin-4-yl]-1′,2′,3′,6′-tetrahydro-[3,4′]bipyridinyl]",437
13,"Cc1cccc(-c2cc(-c3cncc(-c4ccc(CNCCCO)cc4)c3)c3cc[nH]c3n2)n1 [Example 139, 3-(4-{5-[6-(6-Methyl-pyridin-2-yl)-1H-pyrrolo[2,3-b]pyridin-4-yl]-pyridin-3-yl}-benzylamino)-propan-1-ol]",9
14,"Cc1cccc(-c2cc(-c3cncc(-c4ccc(CN5CC[C@H](N(C)C)C5)cc4)c3)c3cc[nH]c3n2)n1 [Example 110, Dimethyl-[(S)-1-(4-{5-[6-(6-methyl-pyridin-2-yl)-1H-pyrrolo[2,3-b]pyridin-4-yl]-pyridin-3-yl}-benzyl)-pyrrolidin-3-yl]-amine]",20
15,"Cc1cccc(-c2nc(-c3cncc(-c4ccc(CN5CCN(C(C)C)CC5)cc4)c3)c3cc[nH]c3n2)n1 [Example 35, 4-{5-[4-(4-Isopropyl-piperazin-1-ylmethyl)-phenyl]-pyridin-3-yl}-2-(6-methyl-pyridin-2-yl)-7H-pyrrolo[2,3-d]pyrimidine]",44
16,"Cc1cccc(-c2nc(-c3cncc(-c4ccc(CN5CCOCC5)cc4)c3)c3cc[nH]c3n2)n1 [Example 69, 2-(6-Methyl-pyridin-2-yl)-4-[5-(4-morpholin-4-ylmethyl-phenyl)-pyridin-3-yl]-7H-pyrrolo[2,3-d]pyrimidine]",< 64
17,"Cc1cccc(-c2cc(-c3cncc(-c4ccc(CN5CC(O)C5)cc4)c3)c3cc[nH]c3n2)n1 [Example 138, 1-(4-{5-[6-(6-Methyl-pyridin-2-yl)-1H-pyrrolo[2,3-b]pyridin-4-yl]-pyridin-3-yl}-benzyl)-azetidin-3-ol]",11
18,"Cc1cccc(-c2cc(-c3cncc(-c4cccc(C(C)(C)N)c4)c3)c3cc[nH]c3n2)n1 [Example 113, 1-Methyl-1-(3-{5-[6-(6-methyl-pyridin-2-yl)-1H-pyrrolo[2,3-b]pyridin-4-yl]-pyridin-3-yl}-phenyl)-ethylamine]",27
19,"Cc1cccc(-c2nc(-c3cncc(-c4ccc(C(C)(C)N)cc4)c3)c3cc[nH]c3n2)n1 [Example 77, 1-Methyl-1-(4-{5-[2-(6-methyl-pyridin-2-yl)-7H-pyrrolo[2,3-d]pyrimidin-4-yl]-pyridin-3-yl}-phenyl)-ethylamine]",9
20,"Cc1cccc(-c2nc(-c3cncc(-c4ccc(N5CCN(C(C)C)CC5)cc4)c3)c3cc[nH]c3n2)n1 [Example 15, 4-{5-[4-(4-Isopropyl-piperazin-1-yl)-phenyl]-pyridin-3-yl}-2-(6-methyl-pyridin-2-yl)-7H-pyrrolo[2,3-d]pyrimidine]",160
21,"Cc1cccc(-c2nc(-c3cncc(N4CCN(C)CC4)c3)c3cc[nH]c3n2)n1 [Example 41, 4-[5-(4-Methyl-piperazin-1-yl)-pyridin-3-yl]-2-(6-methyl-pyridin-2-yl)-7H-pyrrolo[2,3-d]pyrimidine]",130
22,"Cc1cccc(-c2cc(-c3cncc(-c4cccc(C5CCCN5)c4)c3)c3cc[nH]c3n2)n1 (stereo not drawn) [Example 120, 6-(6-Methyl-pyridin-2-yl)-4-[5-(3-pyrrolidin-2-yl-phenyl)-pyridin-3-yl]-1H-pyrrolo[2,3-b]pyridine]",3.6
23,"Cc1cccc(-c2cc(-c3cncc(-c4ccc(CN)cc4)c3)c3cc[nH]c3n2)n1 [Example 84, 4-{5-[6-(6-Methyl-pyridin-2-yl)-1H-pyrrolo[2,3-b]pyridin-4-yl]-pyridin-3-yl}-benzylamine]",36
24,CNCc1cncc(-c2cncc(-c3nc(-c4cccc(C)n4)nc4[nH]ccc34)c2)c1 [Example 76],117
25,"Cc1cccc(-c2nc(-c3cncc(-c4cccc(CN5CCOCC5)c4)c3)c3cc[nH]c3n2)n1 [Example 67, 2-(6-Methyl-pyridin-2-yl)-4-[5-(3-morpholin-4-ylmethyl-phenyl)-pyridin-3-yl]-7H-pyrrolo[2,3-d]pyrimidine]",24
26,"CNCc1cccc(-c2cncc(-c3nc(-c4cccc(C)n4)nc4[nH]ccc34)c2)c1 [Example 36, Methyl-(3-{5-[2-(6-methyl-pyridin-2-yl)-7H-pyrrolo[2,3-d]pyrimidin-4-yl]-pyridin-3-yl}-benzyl)-amine]",8
27,"Cc1cccc(-c2nc(-c3cncc(-c4ccc(CN5CCN(C)CC5)cc4)c3)c3cc[nH]c3n2)n1 [Example 20, 4-{5-[4-(4-Methyl-piperazin-1-ylmethyl)-phenyl]-pyridin-3-yl}-2-(6-methyl-pyridin-2-yl)-7H-pyrrolo[2,3-d]pyrimidine]",45
